In patent publication US11369607B2, “Compositions, systems, and methods for generating inner ear hair cells for treatment of hearing loss” (Massachusetts Institute of Technology, priority 2014, dated 2022) one finds hearing recovery data, which are given here for one compound.

This assay deals with CBA/CaJ mice. In words: Hearing recovery in noise-deafened mice (auditory brainstem responses). It is filed as in vivo, mouse. The following applies: 5, 10, 20, 28.3 and 40 kHz, p<0.05. How it is done:
A 17% (w/w) stock solution of poloxamer 407 gel (Sigma-Aldrich) was prepared by slowly adding it to cold 1× phosphate-buffered saline at pH 7.4. This solution is liquid when refrigerated or at room temperature but solidifies at body temperature. The gel was tinted blue with Evans blue dye (50 ppm) for visualization during administration.
A formulation was prepared as described in Example 4 with 527 mM VPA and 2.975 mM CHIR in 17% Poloxamer 407 with 5% DMSO (“VPA/CHIR”). For comparison, a Notch inhibitor, LY411575, was prepared at 4 mM in 17% Poloxamer 407 with 5% DMSO (“LY411575”). Additionally, a vehicle-only control of 17% Poloxamer 407 with 5% DMSO was prepared (“Control”).
CBA/CaJ mice were deafened in a noise chamber by exposure to an 8-16 kHz octave band noise band for 2 hours at 120 dB SPL. 24 hours after noise exposure, their hearing was assessed by measuring auditory brainstem responses (ABRs). The minimum sound pressure level (SPL) required for visual detection of ABR Wave I was determined at 5, 10, 20, 28.3, and 40 kHz. Following ABR measurements, a trans-tympanic injection of a Poloxamer gel drug mixture (described above as “VPA/CHIR”, “LY411575”, or “Control”) was delivered to fill the middle ear cavity. After 30 days, ABR was assessed and the improvement in hearing threshold from 24 hrs to 30 days after noise exposure was determined.

`C[C@H](NC(=O)[C@@H](O)c1cc(F)cc(F)c1)C(=O)N[C@@H]1C(=O)N(C)c2ccccc2-c2ccccc21` [LY411575, N-2((2S)-2-(3,5-difluorophenyl)-2-hydroxyethanoyl)-N 1-((7S)-5-methyl-6-oxo-6,7-dihydro-5H-dibenzo[b,d]azepin-7-yI)-1-alaninamide]: the hearing recovery entry is “significant recovery at 10 kHz, 28.3 KHz, and 40 kHz”.
